According to patent publication US20200178586A1, “PEPTIDE” (FUJI OIL HOLDINGS INC., priority 2017, published 2020):
“Also recorded” adds a separate entry of the source. Marks after values point to notes of the source that are not given here. *1 amine or outer side, *2 acyl side, *3 side chain or, on linkers, in order; H or OH if unused. Where no end group is shown, it is not given here. [ ]: non-standard residue; d: D form. γGlu = O=C(O)[C@H](CCC(=O)[*:2])N[*:1]

assay: Sensory evaluation of body taste-imparting effect of γ-glutamyl peptides in umami solution and sweet taste solution (Example 2); conditions: Sweet taste solution (6% sucrose); average score of 7 trained panelists, 5 levels, control = 3 points
Description: Umami solution containing 0.7% MSG-0.4% NaCl and Sweet taste solution containing 6% sucrose were used as controls (3 points). And, sample solution was prepared by adding each γ-glutamyl peptide to the control. As comparative controls, γ-Glu-Val-Gly disclosed in Patent Document 1 and Patent Document 6 were used. The panelists were 7 trained panelists at Fuji Oil Holdings Inc. And, the panelist evaluated a body taste of from initial taste to middle taste, a thickness of from middle taste to aftertaste, and persistence with the following five levels.
(§1) 5 points: feels much stronger than the control 4 points: feels stronger than the control 3 points: feels the same as the control 2 points: feels a little weaker than the control 1 point: feels much weaker than the control

Substance	Initial-middle taste	Middle-after taste
[γGlu]-[γGlu]-Tyr	4.0* points	3.7* points
[γGlu]-Val-Gly [reference compound]	3.6 points	4.3* points
[γGlu]-Tyr [reference compound]	3.5 points	3.9* points
[γGlu][γGlu][γGlu]Y	4.3* points	4.3* points
[γGlu][γGlu][γGlu][γGlu]Y	3.9* points	3.6 points

same assay, conditions: Umami solution (0.7% MSG-0.4% NaCl); average score of 7 trained panelists, 5 levels, control = 3 points

Substance	Initial-middle taste	Middle-after taste
[γGlu]-[γGlu]-Tyr	4.0* points	3.9* points
[γGlu]-Val-Gly [reference compound]	3.6 points	4.8* points
[γGlu]-Tyr [reference compound]	3.5 points	3.9* points
[γGlu][γGlu][γGlu]Y	4.1* points	4.0* points
[γGlu][γGlu][γGlu][γGlu]Y	3.9* points	3.7 points

same assay, conditions: umami and sweet taste solutions, summary of Table 1

Substance	body taste of from the initial taste to middle taste (in words)	persistence of the aftertaste (in words)	taste from the middle taste to aftertaste (in words)
[γGlu]-[γGlu]-Tyr	imparted the body taste overall	suppressed	–
[γGlu]-Val-Gly [reference compound]	imparted little body taste	persistent of the strong aftertaste	strong
[γGlu]-Tyr [reference compound]	imparted little body taste	persistent of the strong aftertaste	strong
[γGlu][γGlu][γGlu]Y	imparted the body taste overall	suppressed	–
[γGlu][γGlu][γGlu][γGlu]Y	sufficiently imparted a body taste	–	–

assay: Sensory evaluation of body taste-imparting effect on sweet taste solution (Example 3); conditions: Sweet taste solution (6% sucrose), 100 ppm peptide; average score of eight trained panelists, 5 levels, control = 3 points
Description: Sweet taste solution containing 6% sucrose was used as a control (3 points). And, sample solution was prepared by adding 100 ppm of each γ-glutamyl tripeptide to the control. As comparative controls, γ-Glu-γ-Glu-Val and γ-Glu-γ-Glu-α-Glu-Tyr were used. The panelists were eight trained panelists at Fuji Oil Holdings Inc. And, the panelist evaluated a body taste of from initial taste to middle taste with the following five levels.
as §1

Substance	Initial-middle taste
[γGlu][γGlu][γGlu]M	3.0 points
[γGlu][γGlu][γGlu]W	3.1 points
[γGlu][γGlu][γGlu]I	3.4 points
[γGlu][γGlu][γGlu]V	3.4 points
[γGlu][γGlu][γGlu]Q	3.3 points
[γGlu][γGlu][γGlu]L	3.3 points
[γGlu][γGlu][γGlu]P	3.1 points
[γGlu][γGlu]EY	3.4 points
[γGlu][γGlu][γGlu]D	3.4 points
[γGlu][γGlu][γGlu]S	3.4 points
[γGlu][γGlu][γGlu]K	3.1 points
[γGlu][γGlu][γGlu]N	3.3 points
[γGlu][γGlu][γGlu]C	3.0 points
[γGlu][γGlu][γGlu]A	3.4 points
[γGlu][γGlu][γGlu]T	2.9 points
[γGlu][γGlu][γGlu]Y	4.3** points
[γGlu][γGlu][γGlu]R	4.1** points
[γGlu]-[γGlu]-Val	3.1 points
[γGlu][γGlu][γGlu]H	3.5* points
[γGlu][γGlu][γGlu]E	3.5* points
[γGlu][γGlu][γGlu]G	3.1 points
[γGlu][γGlu][γGlu]F	3.4 points

same assay, conditions: Sweet taste solution (6% sucrose), 100 ppm peptide; summary of FIG. 3 and Table 2

Substance	body taste-imparting effect (in words)
[γGlu][γGlu][γGlu]I	particularly effective
[γGlu][γGlu][γGlu]V	particularly effective; also recorded: superior to γ-Glu-γ-Glu-Val
[γGlu][γGlu][γGlu]L	particularly effective
[γGlu][γGlu]EY	an effect was also observed
[γGlu][γGlu][γGlu]D	particularly effective
[γGlu][γGlu][γGlu]S	particularly effective
[γGlu][γGlu][γGlu]A	particularly effective
[γGlu][γGlu][γGlu]Y	particularly effective
[γGlu][γGlu][γGlu]R	particularly effective
[γGlu][γGlu][γGlu]H	particularly effective
[γGlu][γGlu][γGlu]E	particularly effective
[γGlu][γGlu][γGlu]F	particularly effective
